According to patent publication US7880059B2, “Production of proanthocyanidins to improve forage quality” (The Samuel Roberts Noble Foundation, priority 2007, dated 2011):

T1: UGT78G1 (Medicago truncatula, UniProt A6XNC6)
T1 sequence (A6XNC6 1-454): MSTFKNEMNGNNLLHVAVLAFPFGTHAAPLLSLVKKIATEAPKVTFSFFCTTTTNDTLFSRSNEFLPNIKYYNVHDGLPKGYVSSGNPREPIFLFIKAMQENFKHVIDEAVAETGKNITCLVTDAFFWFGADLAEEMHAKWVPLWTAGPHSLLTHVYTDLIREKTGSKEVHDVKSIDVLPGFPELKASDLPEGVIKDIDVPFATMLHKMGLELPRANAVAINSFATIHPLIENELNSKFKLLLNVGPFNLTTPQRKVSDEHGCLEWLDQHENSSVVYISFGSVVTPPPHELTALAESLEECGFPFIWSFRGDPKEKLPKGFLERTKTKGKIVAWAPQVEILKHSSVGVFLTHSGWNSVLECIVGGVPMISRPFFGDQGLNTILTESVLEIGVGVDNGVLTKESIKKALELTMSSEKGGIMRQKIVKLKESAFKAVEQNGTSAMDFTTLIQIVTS

B1: UGT78G1 (Medicago truncatula) (protein)
chain: T1 sequence (A6XNC6 1-454)

Experiments:
[1] = biological target: T1, UGT78G1; parameters: hexahistidine tag with thrombin cleavage site (pET28a(+)) (N); made in house; host or cells: E. coli BL21 (DE3); settings: in vitro (Modolo et al, 2007); cited from earlier work
[2] = biological target: T1, UGT78G1; assay: Kinetic analysis of UGT78G1 (GT83F) with (iso)flavonoid acceptor substrates, UDP-[14C]-glucose donor; settings: for substrate quality for UGT78G1 in vitro / Vmax compared with that for most of the other substrates: in words; for Kcat / Km / Vmax: recombinant UGT78G1, donor UDP-glucose, 30° C., pH 7.0; for Kcat/Km ratio: unit not given
Experimental: The PCR product was purified, ligated to pGEMTeasy vector (Promega, Madison, Wis., USA), sequenced, excised and re-cloned between the BamHI and NotI sites of pET28a(+) (Novagen, Madison, Wis., USA) with a hexahistidine tag and a thrombin cleavage site. E. coli BL21 (DE3) cells harboring the expression construct were grown to an OD600 of 0.4-0.5, and expression was initiated by addition of isopropyl 1-thio-β-D-galactopyranoside (IPTG) at a final concentration of 0.2 mM, with further incubation with shaking overnight at 16° C. The enzyme was purified from E. coli lysates by nickel affinity chromatography.
Reactions were stopped with TCA after 15 min incubation at 30° C. Samples were extracted with 250 μl of ethyl acetate, and 200 μl were taken for liquid scintillation counting (Beckman LS6500). Data were analyzed using Hyper32 software for the analysis of enzyme-kinetic data (J. S. Easterby, University of Liverpool, Liverpool, UK; available at www.liv.ac.uk/˜jse/software.html).

[3] = biological target: T1, UGT78G1; assay: UGT78G1 enzyme reactions with acceptor substrates, products analyzed by HPLC; type: biochemical; parameters: hexahistidine tag with thrombin cleavage site (pET28a(+)) (N); made in house; host or cells: E. coli BL21 (DE3)
From the text: Reactions were stopped with TCA and products analyzed by HPLC as described above.

[4] = substrate: O=c1c(O)c(-c2ccc(O)cc2)oc2cc(O)cc(O)c12; assay: purified protein, by the assay type; settings: other: recombinant UGT78G1, donor UDP-glucose, 30° C., pH 7.0
[5] = substrate: O=c1c(O)c(-c2ccc(O)c(O)c2)oc2cc(O)cc(O)c12; assay: purified protein, by the assay type; settings: other: recombinant UGT78G1, donor UDP-glucose, 30° C., pH 7.0
[6] = substrate: O=c1cc(-c2ccc(O)cc2)oc2cc(O)cc(O)c12; assay: purified protein, by the assay type; settings: other: recombinant UGT78G1, donor UDP-glucose, 30° C., pH 7.0
[7] = substrate: O=c1c(-c2ccc(O)cc2)coc2cc(O)cc(O)c12; assay: purified protein, by the assay type; settings: other: recombinant UGT78G1, donor UDP-glucose, 30° C., pH 7.0

Row | Molecule | Kcat [2] [s⁻¹] | Km [2] [µM] | Vmax [2] [µmol/min] | position of glycosylation by UGT78G1 [3] | further results
1 | cyanidin | 0.0068 | 52 | 0.2025 | – | activity of UGT78G1 with substrate [1]: shows activity; substrate quality for UGT78G1 in vitro [2]: relatively poor substrates
2 | O=c1c(-c2ccc(O)cc2)coc2cc(O)ccc12 [daidzein] | – | 1.6 | – | – | –
3 | COc1ccc(-c2coc3cc(O)cc(O)c3c2=O)cc1 [biochanin A (4′-methoxy genistein)] | 0.012 | 11.7 | 0.3666 | 7-O-position | –
4 | Oc1ccc(-c2[o+]c3cc(O)cc(O)c3cc2O)cc1 [pelargonidin] | 0.0057 | 71.8 | 0.1698 | – | activity of UGT78G1 with substrate [1]: shows activity; substrate quality for UGT78G1 in vitro [2]: relatively poor substrates
5 | O=c1cc(-c2ccc(O)cc2)oc2cc(O)cc(O)c12 [apigenin] | – | – | – | 7-O-position | Kcat/Km ratio [2]: 1,534
6 | COc1ccc(-c2coc3cc(O)ccc3c2=O)cc1 [formononetin] | 0.0029 | 1.5 | 0.0879 | 7-O-position | preference (Kcat/Km) for formononetin over daidzein ([2]; relative to daidzein): about 2 fold
7 | O=c1c(-c2ccc(O)cc2)coc2cc(O)cc(O)c12 [genistein] | 0.004 | – | 1.2050 | 7-O-position | Km of genistein relative to Km of daidzein ([2]; relative to daidzein): 23 fold; Kcat/Km ratio [2]: 1,098
8 | O=c1c(O)c(-c2ccc(O)cc2)oc2cc(O)cc(O)c12 [kaempferol] | 0.053 | – | 1.5830 | 3-position | Vmax compared with that for most of the other substrates [2]: much higher
9 | O=c1c(O)c(-c2ccc(O)c(O)c2)oc2cc(O)cc(O)c12 [quercetin] | 0.029 | – | 0.8557 | 3-position | Vmax compared with that for most of the other substrates [2]: much higher
10 | B1 | – | – | – | – | Km [4]: 89.8 µM; Km [5]: 28.7 µM; Km [6]: 1.5 µM; Vmax [6]: 0.0688 µmol/min; kcat [6]: 0.0023 s⁻¹; kcat/Km [6]: 1530 M⁻¹ s⁻¹; Km [7]: 36.7 µM
